Experimental data: patent US12358948B2, “Neurotensinergic agonists and methods of using same preventing or treating pain” (priority 2019, dated 2025)
*1 amine or outer side, *2 acyl side, *3 side chain or, on linkers, in order; H or OH if unused. Where a SMILES comes first, the peptide text is derived from it. Bridges are numbered along the chain shown (N, C = ends). [ ]: non-standard residue; d: D form. X2 = O=C([C@H](Cc1cc(F)c(F)cc1F)N[*:1])[*:2]; Ala(cHept) = N[C@@H](CC1CCCCCC1)C(=O)O; Ala(cPr) = N[C@@H](CC1CC1)C(=O)O; hCha = N[C@@H](CCC1CCCCC1)C(=O)O; tBuAla = CC(C)(C)C[C@H](N)C(=O)O; AllylGly = C=CC[C@H](N)C(=O)O; Cba = N[C@@H](CC1CCC1)C(=O)O; Nle = CCCC[C@H](N)C(=O)O; Orn = NCCC[C@H](N)C(=O)O; Dab = NCC[C@H](N)C(=O)O; Nva = CCC[C@H](N)C(=O)O; Dap = NC[C@H](N)C(=O)O

Key:
[1] = molecular target: T1, hNTS1 receptor (Homo sapiens, UniProt P30989); assay: Competitive radioligand binding assay on the hNTS1 receptor; conditions: displacement of 125I-[Tyr3]-NT, membranes of CHO-K1 cells expressing hNTS1; read-out: IC50 NTS1
T1 construct: membranes prepared from them
Description: (§1) CHO-K1 (Chinese Hamster Ovary) cells stably expressing hNTS1 and 1321N1 cells stably expressing hNTS2 (ES-690-C and ES-691-C from PerkinElmer, Montréal, Canada) were cultured respectively in Ham's F12 and in DMEM culture media. Culture media were supplemented with 10% FBS, 100 U/mL penicillin, 100 μg/mL streptomycin, 20 mM HEPES, and 0.4 mg/mL G418 at 37° C. in a humidified chamber at 5% CO2.
(§2) The cells expressing hNTS1 were frozen when they reached 80% confluency. They were scrapped off the dish with 10 mM Tris buffer, 1 mM EDTA, pH 7.5 and centrifuged at 15,000 g for 5 min at 4° C. The pellet was then re-suspended in 1 mL binding buffer. The cells expressing hNTS2 were also frozen when they reached 80% confluency. They were scraped off the dish with PBS, 0.5 mM EDTA, pH 7.5 and sonicated for 5 minutes (pulse 30 s/5 s off, amplitude 40%). They were ultracentrifuged at 100 000 g for 60 minutes at 4° C. The pellet was re-suspended in 1 mL freezing buffer (PBS, glycerol, 0.5 mM EDTA), sonicated for 1 minute (pulse 30 s/5 s off, amplitude 50%) and further diluted in binding buffer. Competitive radioligand binding experiments were performed by incubating 15 μg of cell membranes expressing the hNTS1 receptor with […] of ^125I-[Tyr^3]-NT (2200 Ci/mmol) or 50 μg of cell membranes expressing the hNTS2 receptor with […] of ^125I-[Tyr^3]-NT in binding buffer (50 mM Tris-HCl, pH 7.5, 0.2% BSA) in the presence of increasing concentrations of analogues ranging from 10^−11 to 10^−4 M for 60 min at 25° C. After incubation, the binding reaction mixture was transferred in PEI-coated 96-well filter plates (glass fiber filters GF/B, Millipore, Billerica, MA). Reaction was terminated by filtration, and plates were washed three times with 200 μL ice-cold binding buffer. Glass filters were then counted using a γ-counter (2470 Wizard2, PerkinElmer, Mississauga, Ontario, Canada). Non-specific binding was measured in the presence of 10^−5 M unlabeled NT (8-13) and represented less than 5% of total binding. IC50 values were determined from competition curves as the unlabeled ligand concentration inhibiting 50% of ^125I-[Tyr^3]-NT-specific binding.
(§3) Competitive radioligand binding data were plotted using the nonlinear regression One-site-Fit Log(IC50) and represented the mean±SEM of at least three independent experiments in triplicates.

[2] = molecular target: T2, hNTS2 receptor (Homo sapiens, UniProt O95665); assay: Competitive radioligand binding assay on the hNTS2 receptor; conditions: for IC50: displacement of 125I-[Tyr3]-NT, membranes of 1321N1 cells expressing hNTS2, read-out: IC50 NTS2 (converted); for Selectivity: ratio IC50 for NTS1 : IC50 for NTS2
T2 construct: membranes prepared from them
Description: as §1, §2, §3

T1 sequence (P30989 whole entry): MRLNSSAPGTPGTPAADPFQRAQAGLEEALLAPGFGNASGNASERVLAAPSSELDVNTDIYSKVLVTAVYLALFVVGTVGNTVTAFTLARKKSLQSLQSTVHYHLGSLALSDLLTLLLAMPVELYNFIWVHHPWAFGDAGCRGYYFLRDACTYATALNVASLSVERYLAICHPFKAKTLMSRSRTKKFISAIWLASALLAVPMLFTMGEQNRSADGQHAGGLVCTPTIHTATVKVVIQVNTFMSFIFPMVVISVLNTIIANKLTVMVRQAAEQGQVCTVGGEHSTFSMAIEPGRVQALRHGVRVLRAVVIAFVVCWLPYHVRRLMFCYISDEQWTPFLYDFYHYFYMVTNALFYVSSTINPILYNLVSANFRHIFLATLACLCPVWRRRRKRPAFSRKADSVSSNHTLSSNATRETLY
T2 sequence (O95665 whole entry): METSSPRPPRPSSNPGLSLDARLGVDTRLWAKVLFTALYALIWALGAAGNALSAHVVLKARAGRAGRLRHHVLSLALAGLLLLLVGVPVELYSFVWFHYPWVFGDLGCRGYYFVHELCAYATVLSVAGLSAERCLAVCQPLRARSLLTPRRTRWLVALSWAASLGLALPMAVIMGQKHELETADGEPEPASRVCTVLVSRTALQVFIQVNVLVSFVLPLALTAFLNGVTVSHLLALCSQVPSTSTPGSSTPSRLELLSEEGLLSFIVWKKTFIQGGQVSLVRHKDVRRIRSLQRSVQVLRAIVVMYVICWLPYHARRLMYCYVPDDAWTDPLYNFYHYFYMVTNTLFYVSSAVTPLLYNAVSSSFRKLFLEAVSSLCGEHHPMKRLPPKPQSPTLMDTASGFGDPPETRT

| Structure (SMILES) | IC50 [1] [nM] | IC50 [2] [nM] | Selectivity [2] |
| --- | --- | --- | --- |
| CC(C)C[C@H](NC(=O)[C@H](Cc1ccc(O)cc1)NC(=O)[C@@H]1CCCC[C@H](N)C(=O)N[C@@H](CCCCN)C(=O)N[C@@H](CCCCN)C(=O)N1)C(=O)O [compound 47, Dihydro-c[G(All)KKG(All)]YL] | > 100000 | 94 | >1064 |
| CC(C)C[C@H](NC(=O)[C@@H](CCCCN)NC(=O)[C@@H]1CC=CC[C@H](N)C(=O)N[C@@H](CCCCN)C(=O)N[C@@H](CCCCN)C(=O)N1)C(=O)O [compound 48, c[G(All)KKG(All)]K*L] (H-[AllylGly]KK[AllylGly][dK]L-OH; staple 1-4) | > 100000 | 10100 | >10 |
| CC(C)(C)C[C@H](NC(=O)[C@H](Cc1ccc(O)cc1)NC(=O)[C@@H]1CC=CC[C@H](N)C(=O)N[C@@H](CCCCN)C(=O)N[C@@H](CCCCN)C(=O)N1)C(=O)O [compound 49, c[G(All)KKG(All)]YNpg] (H-[AllylGly]KK[AllylGly]Y[tBuAla]-OH; staple 1-4) | > 100000 | 44.4 | >2252 |
| CC(C)C[C@H](NC(=O)[C@H](Cc1ccc(O)cc1)NC(=O)[C@@H]1CC=CC[C@H](N)C(=O)N[C@@H](CCCCN)C(=O)N[C@@H](CCCN)C(=O)N1)C(=O)O [compound 51, c[G(All)KOrnG(All)]YL] (H-[AllylGly]K[Orn][AllylGly]YL-OH; staple 1-4) | > 100000 | 70.3 | >1422 |
| CC(C)C[C@H](NC(=O)[C@H](Cc1ccc(O)cc1)NC(=O)[C@@H]1CC=CC[C@H](N)C(=O)N[C@@H](CCCCN)C(=O)N[C@@H](CCN)C(=O)N1)C(=O)O [compound 52, c[G(All)KDabG(All)]YL] (H-[AllylGly]K[Dab][AllylGly]YL-OH; staple 1-4) | > 100000 | 244 | >409.3 |
| CC(C)C[C@H](NC(=O)[C@H](Cc1ccc(O)cc1)NC(=O)[C@@H]1CC=CC[C@H](N)C(=O)N[C@@H](CCCCN)C(=O)N[C@@H](CN)C(=O)N1)C(=O)O [compound 53, c[G(All)KDapG(All)]YL] (H-[AllylGly]K[Dap][AllylGly]YL-OH; staple 1-4) | > 100000 | 204 | >490.9 |
| CC(C)C[C@H](NC(=O)[C@H](Cc1ccc(O)cc1)NC(=O)[C@@H]1CC=CC[C@H](N)C(=O)N[C@@H](CCCCN)C(=O)N[C@H](CCCCN)C(=O)N1)C(=O)O [compound 54, c[G(All)KK*G(All)]YL] (H-[AllylGly]K[dK][AllylGly]YL-OH; staple 1-4) | > 100000 | 321 | >311.9 |
| CC(C)C[C@H](NC(=O)[C@H](Cc1ccc(O)cc1)NC(=O)[C@@H]1CC=CC[C@H](N)C(=O)N[C@@H](CCCCN)C(=O)N[C@@H](Cc2c[nH]cn2)C(=O)N1)C(=O)O [compound 55, c[G(All)KHG(All)]YL] (H-[AllylGly]KH[AllylGly]YL-OH; staple 1-4) | > 100000 | 570 | >175 |
| CCCC[C@@H]1NC(=O)[C@H](CCCCN)NC(=O)[C@@H](N)CC=CC[C@@H](C(=O)N[C@@H](Cc2ccc(O)cc2)C(=O)N[C@@H](CC(C)C)C(=O)O)NC1=O [compound 57, c[G(All)KNleG(All)]YL] (H-[AllylGly]K[Nle][AllylGly]YL-OH; staple 1-4) | > 100000 | 716 | >140 |
| CCC[C@@H]1NC(=O)[C@H](CCCCN)NC(=O)[C@@H](N)CC=CC[C@@H](C(=O)N[C@@H](Cc2ccc(O)cc2)C(=O)N[C@@H](CC(C)C)C(=O)O)NC1=O [compound 58, c[G(All)KNvaG(All)]YL] (H-[AllylGly]K[Nva][AllylGly]YL-OH; staple 1-4) | > 100000 | 729 | >137 |
| CC(C)C[C@H](NC(=O)[C@H](Cc1ccc(O)cc1)NC(=O)[C@@H]1CC=CC[C@H](N)C(=O)N[C@@H](CCCCN)C(=O)NCC(=O)N1)C(=O)O [compound 59, c[G(All)KGG(All)]YL] (H-[AllylGly]KG[AllylGly]YL-OH; staple 1-4) | > 100000 | 2130 | >47 |
| CC(C)C[C@H](NC(=O)[C@H](Cc1ccc(O)cc1)NC(=O)[C@@H]1CC=CC[C@H](N)C(=O)N[C@@H](CCCCN)C(=O)N[C@@H](CCC(=O)O)C(=O)N1)C(=O)O [compound 61, c[G(All)KEG(All)]YL] (H-[AllylGly]KE[AllylGly]YL-OH; staple 1-4) | > 100000 | 12400 | >8. |
| COc1ccc(C[C@H](NC(=O)[C@H](Cc2ccc(O)cc2)NC(=O)[C@@H]2CC=CC[C@H](N)C(=O)N[C@@H](CCCCN)C(=O)N[C@@H](CCCCN)C(=O)N2)C(=O)O)cc1 [compound 62, c[G(All)KKG(All)]YY(OMe)] (H-[AllylGly]KK[AllylGly]YY(Me)-OH; staple 1-4) | > 100000 | 166 | >602 |
| NCCCC[C@@H]1NC(=O)[C@H](CCCCN)NC(=O)[C@@H](N)CC=CC[C@@H](C(=O)N[C@@H](Cc2ccc(O)cc2)C(=O)N[C@@H](Cc2cc(F)c(F)cc2F)C(=O)O)NC1=O [compound 63, c[G(All)KKG(All)]YF(2,4,5-trifluoro)] (H-[AllylGly]KK[AllylGly]Y[X2]-OH; staple 1-4) | > 100000 | 366 | >273 |
| NCCCC[C@@H]1NC(=O)[C@H](CCCCN)NC(=O)[C@@H](N)CC=CC[C@@H](C(=O)N[C@@H](Cc2ccc(O)cc2)C(=O)N[C@@H](CCC2CCCCC2)C(=O)O)NC1=O [compound 64, c[G(All)KKG(All)]YA(homoChA)] (H-[AllylGly]KK[AllylGly]Y[hCha]-OH; staple 1-4) | > 100000 | 7.74 | >12 920 |
| NCCCC[C@@H]1NC(=O)[C@H](CCCCN)NC(=O)[C@@H](N)CC=CC[C@@H](C(=O)N[C@@H](Cc2ccc(O)cc2)C(=O)N[C@@H](CC2CC2)C(=O)O)NC1=O [compound 65, c[G(All)KKG(All)]YA(cyclopropyl)] (H-[AllylGly]KK[AllylGly]Y[Ala(cPr)]-OH; staple 1-4) | > 100000 | 312 | >321 |
| NCCCC[C@@H]1NC(=O)[C@H](CCCCN)NC(=O)[C@@H](N)CC=CC[C@@H](C(=O)N[C@@H](Cc2ccc(O)cc2)C(=O)N[C@@H](CC2CCC2)C(=O)O)NC1=O [compound 66, c[G(All)KKG(All)]YA(cyclobutyl)] (H-[AllylGly]KK[AllylGly]Y[Cba]-OH; staple 1-4) | > 100000 | 27.2 | >3682 |
| NCCCC[C@@H]1NC(=O)[C@H](CCCCN)NC(=O)[C@@H](N)CC=CC[C@@H](C(=O)N[C@@H](Cc2ccc(O)cc2)C(=O)N[C@@H](CC2CCCCCC2)C(=O)O)NC1=O [compound 68, c[G(All)KKG(All)]YA(cycloheptyl)] (H-[AllylGly]KK[AllylGly]Y[Ala(cHept)]-OH; staple 1-4) | > 100000 | 6.85 | >14 600 |
| COc1ccc(C[C@H](NC(=O)[C@@H]2CC=CC[C@H](N)C(=O)N[C@@H](CCCCN)C(=O)N[C@@H](CCCCN)C(=O)N2)C(=O)N[C@@H](CC(C)C)C(=O)O)cc1 [compound 75, c[G(All)KKG(All)]Y(OMe)L] (H-[AllylGly]KK[AllylGly]Y(Me)L-OH; staple 1-4) | > 100000 | 86.3 | >1159 |
